Columns and labels:
human CB-2 receptor = target: T1, human CB-2 receptor (Homo sapiens, UniProt P34972); experiment: Binding assay, cannabinoid CB2 receptor ([3H]-CP-55,940 displacement); conditions: for inhibition at 0.2 µM: test concentration 0.2 μM (superscript a)
T1 construct: expressed in transfected cells; host or cells: SK-N-MC cells, pcDNA3 CB-2 (human), semi-purified membranes
Description: (§1) Binding Assay for CB1 or CB2 Agonists or Inverse Agonists
(§2) The human CB-1 and CB-2 receptors were stably expressed in SK-N-MC cells transfected with pcDNA3 CB-1 (human) or pcDNA3 CB-2 (human). The cells were grown in T-180 cell culture flasks under standard cell culture conditions at 37° C. in a 5% CO2 atmosphere. The cells were harvested by trypsinization and homogenized in a homogenization buffer (10 mM Tris, 0.2 mM MgCl2, 5 mM KCl, with protease inhibitors aprotinin, leupeptin, pepstatin A and bacitracin) and centrifuged (2000 g). The supernatant was then centrifuged in 2M sucrose (31,300 g) to produce a semi-purified membrane pellet. The pellet was resuspended in homogenization and store at −80° C.
(§3) On the day of the assay, the pellet was thawed on ice and diluted in assay buffer (50 mM Tris-HCl, 5 mM MgCl2, 2.5 mM EDTA, 0.5 mg/mL fatty acid free bovine serum albumin, pH 7.5). The diluted membrane was added with buffer, test compound or standard and the radioligand [H]^3+-CP-55,940_(0.2 nM) to the wells of a 96-well polypropylene plate. Non-specific binding was measured in wells containing 10 uM WIN 55,212. The plate was covered and incubated for 90 minutes at 30° C. The contents were then aspirated onto a Packard Unifilter G/C filter bottom plate prewet with 0.5% polyethyleneimine. The wells of the polypropylene plate were rinsed and aspirated seven times with a 0.9% saline-0.5% Tween 20 solution. The Unifilter plate was dried, a scintillation cocktail was added to each well and the counts representing binding were quantitated in a TopCount scintillation counter.
(§4) The IC50 binding values for compounds tested were calculated by linear regression and were obtained from studies in which varying compound concentrations were used. Where an IC50 was not obtained, test results are provided as percent inhibition at a test concentration of ^a0.2 μM, ^b1 μM or ^c10 μM.

human CB1 receptor = human CB1 receptor (Homo sapiens, UniProt P21554); experiment: Binding assay, cannabinoid CB1 receptor ([3H]-CP-55,940 displacement); design: expressed in transfected cells; host or cells: SK-N-MC cells, pcDNA3 CB-1 (human), semi-purified membranes; conditions: for inhibition at 0.2 µM: test concentration 0.2 μM (superscript a); for inhibition at 0.2 µM / inhibition at 1 µM / inhibition at 10 µM: read-out: CB1 binding percent inhibition; for inhibition at 1 µM: test concentration 1 μM (superscript b); for inhibition at 10 µM: test concentration 10 μM (superscript c)
Description: as §1, §2, §3, §4

[1] = read-out: CB2 binding percent inhibition

Chain of human CB1 receptor (P21554 whole entry): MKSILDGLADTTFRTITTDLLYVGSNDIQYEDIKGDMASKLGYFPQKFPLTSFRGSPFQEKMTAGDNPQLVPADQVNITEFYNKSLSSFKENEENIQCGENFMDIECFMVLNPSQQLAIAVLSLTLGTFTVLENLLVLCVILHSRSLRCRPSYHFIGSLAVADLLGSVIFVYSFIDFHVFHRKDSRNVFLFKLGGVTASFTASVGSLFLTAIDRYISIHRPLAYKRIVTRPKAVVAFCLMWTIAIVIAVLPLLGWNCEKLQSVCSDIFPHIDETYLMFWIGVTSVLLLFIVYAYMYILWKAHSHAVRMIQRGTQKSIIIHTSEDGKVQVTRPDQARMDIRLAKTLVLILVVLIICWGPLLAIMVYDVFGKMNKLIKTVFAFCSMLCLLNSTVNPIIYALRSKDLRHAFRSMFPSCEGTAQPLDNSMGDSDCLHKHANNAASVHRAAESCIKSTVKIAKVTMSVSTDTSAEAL
T1 sequence (P34972 whole entry): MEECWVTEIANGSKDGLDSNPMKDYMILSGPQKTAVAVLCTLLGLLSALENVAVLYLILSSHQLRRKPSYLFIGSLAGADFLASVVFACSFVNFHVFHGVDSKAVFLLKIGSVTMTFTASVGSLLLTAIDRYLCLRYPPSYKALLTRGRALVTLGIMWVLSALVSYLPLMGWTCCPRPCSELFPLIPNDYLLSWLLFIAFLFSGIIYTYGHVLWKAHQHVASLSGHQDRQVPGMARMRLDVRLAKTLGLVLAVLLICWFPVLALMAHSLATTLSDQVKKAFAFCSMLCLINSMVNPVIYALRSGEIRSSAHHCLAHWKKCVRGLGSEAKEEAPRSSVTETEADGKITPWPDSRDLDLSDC

CCOC(=O)[C@@H]1C2CCC(C2)[C@@H]1NC(=O)c1nn(-c2ccc(F)cc2F)c2c1CS(=O)(=O)C[C@@H]2Cc1cccc(F)c1 (stereo partly drawn) [Cpd 49, (2R,3S)-3-{[1-(2,4-difluoro-phenyl)-(7R)-(3-fluoro-benzyl)-5,5-dioxo-4,5,6,7-tetrahydro-1H-5λ^6-thiopyrano[4,3-c]pyrazole-3-carbonyl]-amino}-bicyclo[2.2.1]heptane-2-carboxylic acid ethyl ester]
inhibition at 0.2 µM (human CB-2 receptor; [1]): 6%
inhibition at 0.2 µM (human CB1 receptor): 33%

O=C(NCc1ccccn1)c1nn(-c2ccc(Cl)cc2Cl)c2c1C[S+]([O-])C/C2=C\c1ccc(F)cc1 (stereo not shown) [Cpd 80, (7Z)-1-(2,4-dichloro-phenyl)-7-(4-fluoro-benzylidene)-5-oxo-4,5,6,7-tetrahydro-1H-5λ^4-thiopyrano[4,3-c]pyrazole-3-carboxylic acid (pyridin-2-ylmethyl)-amide]
inhibition at 0.2 µM (human CB-2 receptor; [1]): 2%
inhibition at 0.2 µM (human CB1 receptor): 21%

O=C(NNc1ccc(Cl)cc1Cl)c1nn(-c2ccc(Cl)cc2Cl)c2c1CS(=O)(=O)C/C2=C\c1ccc(F)cc1 [Cpd 53, (7Z)-1-(2,4-dichloro-phenyl)-7-(4-fluoro-benzylidene)-5,5-dioxo-4,5,6,7-tetrahydro-1H-5λ^6-thiopyrano[4,3-c]pyrazole-3-carboxylic acid N′-(2,4-dichloro-phenyl)-hydrazide]
inhibition at 0.2 µM (human CB-2 receptor; [1]): 30%
inhibition at 0.2 µM (human CB1 receptor): 55%

O=C(c1nn(-c2ccc(Cl)cc2)c2c1CS(=O)(=O)C/C2=C\c1ccc(F)cc1)N1CCCCC1 [Cpd 98, (7Z)-[1-(4-chloro-phenyl)-7-(4-fluoro-benzylidene)-5,5-dioxo-4,5,6,7-tetrahydro-1H-5λ^6-thiopyrano[4,3-c]pyrazol-3-yl]-piperidin-1-yl-methanone]
inhibition at 0.2 µM (human CB-2 receptor; [1]): 14%
inhibition at 0.2 µM (human CB1 receptor): 51%

CN1CCN(NC(=O)c2nn(-c3ccc(Cl)cc3Cl)c3c2CS(=O)(=O)C/C3=C\c2ccc(F)cc2)CC1 [Cpd 109, (7Z)-1-(2,4-dichloro-phenyl)-7-(4-fluoro-benzylidene)-5,5-dioxo-4,5,6,7-tetrahydro-1H-5λ^6-thiopyrano[4,3-c]pyrazole-3-carboxylic acid (4-methyl-piperazin-1-yl)-amide]
inhibition at 0.2 µM (human CB-2 receptor; [1]): 6%
inhibition at 0.2 µM (human CB1 receptor): 4%

C[C@H](NS(=O)(=O)/C=C/c1nn(Cc2ccccc2)c2c1CSCC2)C1CCCCC1 [Cpd 12, (E)-2-(1-benzyl-1,4,6,7-tetrahydro-thiopyrano[4,3-c]pyrazol-3-yl)-ethenesulfonic acid [(1S)-1-cyclohexyl-ethyl]-amide]
inhibition at 1 µM (human CB-2 receptor; test concentration 1 μM (superscript b), read-out: CB2 binding percent inhibition): 42%
inhibition at 1 µM (human CB1 receptor): 15%

COC[C@@H]1CCCN1NC(=O)c1nn(-c2ccc(Cl)cc2Cl)c2c1CS(=O)(=O)C/C2=C\c1ccc(F)cc1 [Cpd 125, (7Z)-1-(2,4-dichloro-phenyl)-7-(4-fluoro-benzylidene)-5,5-dioxo-4,5,6,7-tetrahydro-1H-5λ^6-thiopyrano[4,3-c]pyrazole-3-carboxylic acid [(2S)-2-(methoxymethyl)-pyrrolidin-1-yl]-amide]
inhibition at 0.2 µM (human CB-2 receptor; [1]): 8%
IC50 (human CB1 receptor): 58 nM

C[C@H](NC(=O)/C=C/c1nn(Cc2ccccc2)c2c1CS(=O)(=O)CC2)c1ccccc1 [Cpd 36, (2E)-3-(1-benzyl-5,5-dioxo-4,5,6,7-tetrahydro-1H-5λ^6-thiopyrano[4,3-c]pyrazol-3-yl)-N-[(1S)-1-phenyl-ethyl]-acrylamide]
inhibition at 1 µM (human CB1 receptor): 25.5%
inhibition at 10 µM (human CB1 receptor): 1%

CC(NS(=O)(=O)/C=C/c1nn(Cc2ccccc2)c2c1C[S+]([O-])CC2)c1ccccc1 (stereo not shown) [Cpd 29, (E)-2-(1-benzyl-5-oxo-4,5,6,7-tetrahydro-1H-5λ^4-thiopyrano[4,3-c]pyrazol-3-yl)-ethenesulfonic acid (1-phenyl-ethyl)-amide]
inhibition at 10 µM (human CB1 receptor): 8%

CC(NS(=O)(=O)/C=C/c1c2c(nn1Cc1ccccc1)CC[S+]([O-])C2)C1CCCCC1 (stereo not shown) [Cpd 26, (E)-2-(2-benzyl-5-oxo-4,5,6,7-tetrahydro-2H-5λ^4-thiopyrano[4,3-c]pyrazol-3-yl)-ethenesulfonic acid (1-cyclohexyl-ethyl)-amide]
CB2 binding percent inhibition (human CB-2 receptor; test concentration 10 μM (superscript c), 10 µM): 32%
inhibition at 10 µM (human CB-2 receptor; test concentration 10 μM (superscript c), read-out: CB2 binding percent inhibition): 22%

— patent US7524964B2, “Tetrahydrothiopyrano pyrazole cannabinoid modulators” (Janssen Pharmaceutica NV, priority 2005, dated 2009)
